Measured values taken from the supplement of paper PMC10307832.

Columns and labels:
Experiment in all cases: relative viability (nuclei count vs DMSO), 5 days (fraction); higher = more cells survive
HOP-62 = tested on: HOP-62
In short: (§1)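 Lung cancer cell lines in 1536-well plates were dosed by pin tool the day after seeding, either with one drug alone or with a fixed anchor-drug dose plus five library-drug doses (not always all listed) in √10 steps. After 5 days, cells were fixed and their nuclei stained in one step (final 0.05% Triton X-100, 1% formaldehyde, 1 ug/ml Hoechst), then counted on 4× images. Relative viability is the nuclei count in treated wells divided by that in vehicle wells. Values are medians of duplicate plates.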

LU99A = tested on: LU99A
In short: as §1

UMC-11 = tested on: UMC-11
In short: as §1

NCI-H522 = tested on: NCI-H522
In short: as §1

NCI-H1650 = tested on: NCI-H1650
In short: as §1

NCI-H3122 = tested on: NCI-H3122
In short: as §1

NCI-H1355 = tested on: NCI-H1355
In short: as §1

LXF-289 = tested on: LXF-289
In short: as §1

SK-LU-1 = tested on: SK-LU-1
In short: as §1

NCI-H1993 = tested on: NCI-H1993
In short: as §1

NCI-H2170 = tested on: NCI-H2170
In short: as §1

EPLC-272H = tested on: EPLC-272H
In short: as §1

PC-3 [JPC-3] = tested on: PC-3 [JPC-3]
In short: as §1

NCI-H2405 = tested on: NCI-H2405
In short: as §1

HCC-827 = tested on: HCC-827
In short: as §1

LCLC-97TM1 = tested on: LCLC-97TM1
In short: as §1

LK-2 = tested on: LK-2
In short: as §1

H3255 = tested on: H3255
In short: as §1

ChaGo-K-1 = tested on: ChaGo-K-1
In short: as §1

NCI-H2228 = tested on: NCI-H2228
In short: as §1

NCI-H441 = tested on: NCI-H441
In short: as §1

EKVX = tested on: EKVX
In short: as §1

SW 1573 = tested on: SW 1573
In short: as §1

Molecule `Cc1csc(=NC2CCCCC2)n1/N=C/c1ccc(O)c(O)c1O` [MIM1] + N=C(N)NC(=N)NCCc1ccccc1 [Phenformin] (partner 250 µM) has a relative viability (HOP-62; first compound 0.2 µM) of 0.641, a relative viability (HOP-62; first compound 0.6325 µM) of 0.603 and a relative viability (HOP-62; first compound 2 µM) of 0.624. For the same molecule, the relative viability (HOP-62; first compound 6.325 µM) was 0.608, the relative viability (HOP-62; first compound 20 µM) was 0.157 and the relative viability (LU99A; first compound 0.2 µM) was 0.976. The relative viability (LU99A; first compound 0.6325 µM) was 0.753, the relative viability (LU99A; first compound 2 µM) was 0.819 and the relative viability (LU99A; first compound 6.325 µM) was 0.702. It also gave a relative viability (LU99A; first compound 20 µM) of 0.325, a relative viability (UMC-11; first compound 0.2 µM) of 0.326 and a relative viability (UMC-11; first compound 2 µM) of 0.336. It also gave a relative viability (UMC-11; first compound 6.325 µM) of 0.291, a relative viability (UMC-11; first compound 20 µM) of 0.201 and a relative viability (NCI-H522; first compound 0.2 µM) of 0.697. For the same molecule, the relative viability (NCI-H522; first compound 0.6325 µM) was 0.665, the relative viability (NCI-H522; first compound 2 µM) was 0.672 and the relative viability (NCI-H522; first compound 6.325 µM) was 0.52. The relative viability (NCI-H522; first compound 20 µM) was 0.571, the relative viability (NCI-H1650; first compound 0.2 µM) was 0.461 and the relative viability (NCI-H1650; first compound 0.6325 µM) was 0.406. It also gave a relative viability (NCI-H1650; first compound 2 µM) of 0.412, a relative viability (NCI-H1650; first compound 6.325 µM) of 0.155 and a relative viability (NCI-H1650; first compound 20 µM) of 0.164. The relative viability (NCI-H3122; first compound 0.2 µM) was 0.364, the relative viability (NCI-H3122; first compound 0.6325 µM) was 0.371 and the relative viability (NCI-H3122; first compound 2 µM) was 0.355. For the same molecule, the relative viability (NCI-H3122; first compound 6.325 µM) was 0.195, the relative viability (NCI-H3122; first compound 20 µM) was 0.143 and the relative viability (NCI-H1355; first compound 0.2 µM) was 0.46. For the same molecule, the relative viability (NCI-H1355; first compound 0.6325 µM) was 0.351, the relative viability (NCI-H1355; first compound 2 µM) was 0.443 and the relative viability (NCI-H1355; first compound 6.325 µM) was 0.399. For the same molecule, the relative viability (NCI-H1355; first compound 20 µM) was 0.274, the relative viability (LXF-289; first compound 0.2 µM) was 0.517 and the relative viability (LXF-289; first compound 0.6325 µM) was 0.476. It also gave a relative viability (LXF-289; first compound 2 µM) of 0.532, a relative viability (LXF-289; first compound 6.325 µM) of 0.452 and a relative viability (LXF-289; first compound 20 µM) of 0.264. It also gave a relative viability (SK-LU-1; first compound 0.2 µM) of 0.533, a relative viability (SK-LU-1; first compound 0.6325 µM) of 0.579 and a relative viability (SK-LU-1; first compound 2 µM) of 0.617. The relative viability (SK-LU-1; first compound 6.325 µM) was 0.405, the relative viability (SK-LU-1; first compound 20 µM) was 0.393 and the relative viability (NCI-H1993; first compound 0.2 µM) was 0.481. It also gave a relative viability (NCI-H1993; first compound 0.6325 µM) of 0.545, a relative viability (NCI-H1993; first compound 2 µM) of 0.474 and a relative viability (NCI-H1993; first compound 6.325 µM) of 0.443. For the same molecule, the relative viability (NCI-H1993; first compound 20 µM) was 0.463, the relative viability (NCI-H2170; first compound 0.2 µM) was 0.407 and the relative viability (NCI-H2170; first compound 0.6325 µM) was 0.406. For the same molecule, the relative viability (NCI-H2170; first compound 2 µM) was 0.414, the relative viability (NCI-H2170; first compound 6.325 µM) was 0.264 and the relative viability (NCI-H2170; first compound 20 µM) was 0.172. The relative viability (EPLC-272H; first compound 0.2 µM) was 0.324, the relative viability (EPLC-272H; first compound 0.6325 µM) was 0.273 and the relative viability (EPLC-272H; first compound 2 µM) was 0.279. For the same molecule, the relative viability (EPLC-272H; first compound 6.325 µM) was 0.184, the relative viability (EPLC-272H; first compound 20 µM) was 0.104 and the relative viability (PC-3 [JPC-3]; first compound 0.2 µM) was 0.458. It also gave a relative viability (PC-3 [JPC-3]; first compound 0.6325 µM) of 0.488, a relative viability (PC-3 [JPC-3]; first compound 2 µM) of 0.517 and a relative viability (PC-3 [JPC-3]; first compound 6.325 µM) of 0.469. It also gave a relative viability (PC-3 [JPC-3]; first compound 20 µM) of 0.361, a relative viability (NCI-H2405; first compound 0.2 µM) of 0.402 and a relative viability (NCI-H2405; first compound 0.6325 µM) of 0.375. It also gave a relative viability (NCI-H2405; first compound 2 µM) of 0.385, a relative viability (NCI-H2405; first compound 6.325 µM) of 0.386 and a relative viability (NCI-H2405; first compound 20 µM) of 0.371. It also gave a relative viability (HCC-827; first compound 0.2 µM) of 0.412, a relative viability (HCC-827; first compound 0.6325 µM) of 0.377 and a relative viability (HCC-827; first compound 2 µM) of 0.404. The relative viability (HCC-827; first compound 6.325 µM) was 0.31, the relative viability (HCC-827; first compound 20 µM) was 0.13 and the relative viability (LCLC-97TM1; first compound 0.2 µM) was 0.445. The relative viability (LCLC-97TM1; first compound 0.6325 µM) was 0.434, the relative viability (LCLC-97TM1; first compound 2 µM) was 0.413 and the relative viability (LCLC-97TM1; first compound 6.325 µM) was 0.312. It also gave a relative viability (LCLC-97TM1; first compound 20 µM) of 0.142, a relative viability (LK-2; first compound 0.2 µM) of 0.602 and a relative viability (LK-2; first compound 2 µM) of 0.49. The relative viability (LK-2; first compound 6.325 µM) was 0.147, the relative viability (LK-2; first compound 20 µM) was 0.148 and the relative viability (H3255; first compound 0.2 µM) was 0.33. For the same molecule, the relative viability (H3255; first compound 0.6325 µM) was 0.386, the relative viability (H3255; first compound 2 µM) was 0.379 and the relative viability (H3255; first compound 6.325 µM) was 0.402. It also gave a relative viability (H3255; first compound 20 µM) of 0.302, a relative viability (ChaGo-K-1; first compound 0.2 µM) of 0.521 and a relative viability (ChaGo-K-1; first compound 0.6325 µM) of 0.49. For the same molecule, the relative viability (ChaGo-K-1; first compound 2 µM) was 0.45, the relative viability (ChaGo-K-1; first compound 6.325 µM) was 0.227 and the relative viability (ChaGo-K-1; first compound 20 µM) was 0.171. It also gave a relative viability (NCI-H2228; first compound 0.2 µM) of 0.389, a relative viability (NCI-H2228; first compound 0.6325 µM) of 0.272 and a relative viability (NCI-H2228; first compound 2 µM) of 0.332. For the same molecule, the relative viability (NCI-H2228; first compound 6.325 µM) was 0.145, the relative viability (NCI-H2228; first compound 20 µM) was 0.0959 and the relative viability (NCI-H441; first compound 0.2 µM) was 0.914. It also gave a relative viability (NCI-H441; first compound 2 µM) of 0.865, a relative viability (NCI-H441; first compound 6.325 µM) of 0.543 and a relative viability (NCI-H441; first compound 20 µM) of 0.203. It also gave a relative viability (EKVX; first compound 0.2 µM) of 0.253, a relative viability (EKVX; first compound 0.6325 µM) of 0.144 and a relative viability (EKVX; first compound 2 µM) of 0.213. For the same molecule, the relative viability (EKVX; first compound 6.325 µM) was 0.209, the relative viability (EKVX; first compound 20 µM) was 0.198 and the relative viability (SW 1573; first compound 0.2 µM) was 0.377. The relative viability (SW 1573; first compound 0.6325 µM) was 0.455, the relative viability (SW 1573; first compound 2 µM) was 0.442 and the relative viability (SW 1573; first compound 6.325 µM) was 0.25. For the same molecule, the relative viability (SW 1573; first compound 20 µM) was 0.081.
